In article PMC10648927, “Examining the activity of cefepime-taniborbactam against Burkholderia cepacia complex and Burkholderia gladioli isolated from cystic fibrosis patients in the United States” (Antimicrobial Agents and Chemotherapy, 2023):
Converted amounts (≈) assume the structure as drawn.

Assays:
Design in all cases: agar dilution MIC, growth inhibition of clinical Burkholderia isolates
[1] = system: T1, B. multivorans AU25543; test: microbe, parasite or virus in culture; conditions: Burkholderia multivorans, AU25543
T1 construct: AU25543
In short: (§1)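 MICs by agar dilution against Bcc and B. gladioli clinical isolates, interpreted with CLSI breakpoints where available; K. pneumoniae ATCC 700603 (SHV-18) and ATCC BAA-1705 (KPC) served as quality controls.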

[2] = system: T2, B. multivorans AU21015; test: microbe, parasite or virus in culture; conditions: Burkholderia multivorans, AU21015
T2 construct: AU21015
In short: as §1

[3] = system: T3, B. multivorans AU11233; test: microbe, parasite or virus in culture; conditions: Burkholderia multivorans, AU11233
T3 construct: AU11233
In short: as §1

[4] = system: T4, B. multivorans AU17545; test: microbe, parasite or virus in culture; conditions: Burkholderia multivorans, AU17545
T4 construct: AU17545
In short: as §1

[5] = system: T5, B. multivorans AU30441; test: microbe, parasite or virus in culture; conditions: Burkholderia multivorans, AU30441
T5 construct: AU30441
In short: as §1

[6] = system: T6, B. multivorans AU25057; test: microbe, parasite or virus in culture; conditions: Burkholderia multivorans, AU25057
T6 construct: AU25057
In short: as §1

[7] = system: T7, B. cepacia AU19265; test: microbe, parasite or virus in culture; conditions: Burkholderia cepacia, AU19265
T7 construct: AU19265
In short: as §1

[8] = system: T8, B. gladioli AU21101; test: organism not typed
T8 construct: AU21101
In short: as §1

[9] = system: T9, B. contaminans AU25403; test: organism not typed
T9 construct: AU25403
In short: as §1

[10] = system: T10, B. multivorans AU14328; test: microbe, parasite or virus in culture; conditions: Burkholderia multivorans, AU14328
T10 construct: AU14328
In short: as §1

[11] = system: T11, B. multivorans AU30760; test: microbe, parasite or virus in culture; conditions: Burkholderia multivorans, AU30760
T11 construct: AU30760
In short: as §1

[12] = system: T12, B. multivorans AU13919; test: microbe, parasite or virus in culture; conditions: Burkholderia multivorans, AU13919
T12 construct: AU13919
In short: as §1

[13] = system: T13, B. ambifaria AU19862; test: microbe, parasite or virus in culture; conditions: Burkholderia ambifaria, AU19862
T13 construct: AU19862
In short: as §1

[14] = system: T14, B. cenocepacia AU0133; test: microbe, parasite or virus in culture; conditions: Burkholderia cenocepacia, AU0133
T14 construct: AU0133
In short: as §1

[15] = system: T15, Burkholderia cepacia complex Bcc Indeterminate AU19821; test: microbe, parasite or virus in culture; conditions: Burkholderia cepacia
T15 construct: AU19821
In short: as §1

[16] = system: T16, B. cenocepacia AU9512; test: microbe, parasite or virus in culture; conditions: Burkholderia cenocepacia, AU9512
T16 construct: AU9512
In short: as §1

[17] = system: T17, B. ubonensis AU7314; test: organism not typed
T17 construct: AU7314
In short: as §1

[18] = system: T18, B. pyrrocinia AU4348; test: microbe, parasite or virus in culture; conditions: Burkholderia pyrrocinia, AU4348
T18 construct: AU4348
In short: as §1

[19] = system: T19, B. cepacia AU13354; test: microbe, parasite or virus in culture; conditions: Burkholderia cepacia, AU13354
T19 construct: AU13354
In short: as §1

[20] = system: T20, B. cenocepacia AU6550; test: microbe, parasite or virus in culture; conditions: Burkholderia cenocepacia, AU6550
T20 construct: AU6550
In short: as §1

[21] = system: T21, B. multivorans AU19729; test: microbe, parasite or virus in culture; conditions: Burkholderia multivorans, AU19729
T21 construct: AU19729
In short: as §1

[22] = system: T22, B. multivorans AU10086; test: microbe, parasite or virus in culture; conditions: Burkholderia multivorans, AU10086
T22 construct: AU10086
In short: as §1

SMILES	MIC [1] [µg/mL]	MIC [2] [µg/mL]	MIC [3] [µg/mL]	MIC [4] [µg/mL]	MIC [5] [µg/mL]	MIC [6] [µg/mL]	MIC [7] [µg/mL]	MIC [8] [µg/mL]	MIC [9] [µg/mL]	MIC [10] [µg/mL]	MIC [11] [µg/mL]	MIC [12] [µg/mL]	MIC [13] [µg/mL]	MIC [14] [µg/mL]	MIC [15] [µg/mL]	MIC [16] [µg/mL]	MIC [17] [µg/mL]	MIC [18] [µg/mL]	MIC [19] [µg/mL]	MIC [20] [µg/mL]	other results
C[C@H]1COc2c(N3CCN(C)CC3)c(F)cc3c(=O)c(C(=O)O)cn1c23 [levofloxacin]	2 (≈ 5.53 µM)	32 (≈ 88.6 µM)	16 (≈ 44.3 µM)	8 (≈ 22.1 µM)	2 (≈ 5.53 µM)	8 (≈ 22.1 µM)	4 (≈ 11.1 µM)	1 (≈ 2.77 µM)	2 (≈ 5.53 µM)	2 (≈ 5.53 µM)	2 (≈ 5.53 µM)	2 (≈ 5.53 µM)	8 (≈ 22.1 µM)	4 (≈ 11.1 µM)	32 (≈ 88.6 µM)	16 (≈ 44.3 µM)	4 (≈ 11.1 µM)	> 32	8 (≈ 22.1 µM)	8 (≈ 22.1 µM)	MIC [21]: 16 µg/mL (≈ 44.3 µM); MIC [22]: > 32 µg/mL
CO/N=C(\C(=O)N[C@@H]1C(=O)N2C(C(=O)[O-])=C(C[N+]3(C)CCCC3)CS[C@H]12)c1csc(N)n1 [cefepime]	4 (≈ 8.32 µM)	> 32	> 32	16 (≈ 33.3 µM)	2 (≈ 4.16 µM)	8 (≈ 16.6 µM)	32 (≈ 66.6 µM)	16 (≈ 33.3 µM)	8 (≈ 16.6 µM)	8 (≈ 16.6 µM)	8 (≈ 16.6 µM)	8 (≈ 16.6 µM)	16 (≈ 33.3 µM)	16 (≈ 33.3 µM)	> 32	32 (≈ 66.6 µM)	> 32	32 (≈ 66.6 µM)	> 32	32 (≈ 66.6 µM)	MIC [21]: > 32 µg/mL; MIC [22]: 32 µg/mL (≈ 66.6 µM)
C[C@@H](O)[C@H]1C(=O)N2C(C(=O)O)=C(S[C@@H]3CN[C@H](C(=O)N(C)C)C3)[C@H](C)[C@H]12 [meropenem]	1 (≈ 2.61 µM)	16 (≈ 41.7 µM)	8 (≈ 20.9 µM)	2 (≈ 5.22 µM)	8 (≈ 20.9 µM)	4 (≈ 10.4 µM)	4 (≈ 10.4 µM)	1 (≈ 2.61 µM)	2 (≈ 5.22 µM)	4 (≈ 10.4 µM)	2 (≈ 5.22 µM)	8 (≈ 20.9 µM)	2 (≈ 5.22 µM)	4 (≈ 10.4 µM)	16 (≈ 41.7 µM)	4 (≈ 10.4 µM)	32 (≈ 83.4 µM)	4 (≈ 10.4 µM)	8 (≈ 20.9 µM)	8 (≈ 20.9 µM)	MIC [21]: 16 µg/mL (≈ 41.7 µM); MIC [22]: 32 µg/mL (≈ 83.4 µM)
